Values quoted from earlier work in patent US12030986B2, “Sustained release composition using biobased biodegradable hyperbranched polyesters” (CENTRAL MICHIGAN UNIVERSITY, priority 2014, dated 2024).

Row | SMILES | pKa
1 | O=C(O)[C@@H]1C[C@@H](O)CN1 (relative stereo) [trans-4-hydroxyproline] | 1.8
2 | O=P(O)(O)O[C@H]1[C@H](OP(=O)(O)O)[C@@H](OP(=O)(O)O)[C@H](OP(=O)(O)O)[C@@H](OP(=O)(O)O)[C@H]1OP(=O)(O)O [Phytic, phytic acid] | 1.8
3 | N[C@@H](CC(=O)O)C(=O)O [aspartic] | 2.0
4 | O=C(O)/C=C(/CC(=O)O)C(=O)O [cis-aconitic] | 2.0
5 | O=C(O)c1cccnc1 [nicotinic] | 2.2
6 | O=C(O)c1ccccn1 [picolinic acid] | 1.0

More lines, now with the values ahead:

Row | pKa | SMILES
7 | 1.3 | NC(CS(=O)(=O)O)C(=O)O (stereo not drawn) [cysteic]
8 | 2.1 | N[C@@H](CCC(=O)O)C(=O)O [glutamic]
9 | 1.6 | N[C@@H](CCSSCC[C@H](N)C(=O)O)C(=O)O [homocystine]
10 | 2.2 | CNCC(=O)O [methlyglycine]
11 | 2.4 | CC(=O)C(=O)O [pyruvic]
12 | 2.1 | C[C@@H](O)[C@H](N)C(=O)O [threonine]
